Measurements from article PMC5769417, “Single- and Multiple-Dose Trials to Determine the Pharmacokinetics, Safety, Tolerability, and Sex Effect of Oral Ginsenoside Compound K in Healthy Chinese Volunteers” (Frontiers in Pharmacology, 2018).
Where two headings read alike, the source gives them in different places.

Test: Multiple-dose trial, plasma pharmacokinetics
Type: in vivo, human
Conditions: for AUC: Day 15, read-out: AUCτ (zero to 24 h); for concentration at 15 day: Day 15, steady state, read-out: Cmin
Procedure: Multiple-dose pharmacokinetics: […] Multiple-dose pharmacokinetics: […] All samples were preserved at −70°C and analyzed with a LC-MS/MS (API 4000 LC-MS/MS, ABI Company, Foster City, CA, USA) at the Institute of Clinical Pharmacology, Central South University (Changsha, China). […] An aqueous solution of a stable internal standard (IS for CK: digoxin, Shijiaoke Biological Technology Co. Ltd., Beijing, China; IS for PPD: coumarin, Sigma-Aldrich, St. Louis, USA) and 1 M phosphate buffer were added to 0.5 ml of thawed sample, and analytical standards and quality control (QC) samples were prepared in the same matrix. All samples were treated with 2 ml of methyl tert-butyl ether (MTBE, CNW technologies GmbH, Duesseldorf, Germany) to precipitate the bulk of plasma proteins. After mechanical shock by mixing for 10 min and a subsequent centrifugation (4,000 rpm, 4°C, 10 min), 1.4 ml of the supernatant was transferred and blow-dried with nitrogen in a water bath at 40°C. Lastly, the residue was dissolved in 100 μl of mobile phase and then was subjected to a mechanical shock by mixing, and centrifuged. The supernatant was subsequently injected into the column for analysis. […] Accuracy and precision of the assay were determined by evaluating the performance of the assay controls. Over the quantification range, the accuracy of the QC samples varied from 85 to 115% and the intra- and inter-assay imprecision was <15%. […] The area under the curve (AUC) from time zero to the last time point (AUClast) and the AUC extrapolated to infinity (AUCinf) were calculated using the linear trapezoidal rule. The slope (elimination rate constant, K) of the terminal phase of the plasma concentration-time profile was determined, using a weighting factor of 1, by the method of least squares (log-linear regression of at least three data points). The t1/2 was estimated as (ln2)/K. […] The apparent volume of distribution (V/F) was equal to (CL/F)/K. The mean residence time (MRT) was calculated as the area under the first moments curve (AUMC) divided by AUC. The dose-normalized PK parameters e.g., Cmax/D and AUClast/D, were obtained by dividing each PK result by the administered dose. The cumulative excretion rate was calculated as the amount of unchanged drug in the urine over a time interval divided by the dose and was expressed as thousand points (‰). On day 15 in the multiple-dose trial, the PK parameters, such as t1/2, CL/F, and V/F at steady state were calculated using the same method as that used for the single-dose trial. In addition, the Tmax at steady state (Tmax,ss), Cmax at steady state (Cmax,ss), and Cmin,ss were obtained from experimental observation after the steady state during the multiple-dose trial. […] The average steady-state drug concentration (Cavg) is calculated as AUCτ/τ, and the fluctuation ratio was calculated as (Cmax,ss − Cmin,ss)/Cavg. The accumulation index was calculated using dosing interval and elimination rate constant as in the following equation: 1/(1 − e^−Kτ).

[1] = both sexes, human, plasma, 200 mg qd oral after breakfast
[2] = both sexes, human, plasma, 400 mg qd oral after breakfast
[3] = both sexes, human, plasma, po, 100 mg, 100 mg oral after breakfast, Day 1
[4] = both sexes, human, plasma, po, 100 mg, 100 mg qd oral after breakfast, Day 15
[5] = both sexes, human, plasma, po, 200 mg, 200 mg oral after breakfast, Day 1
[6] = both sexes, human, plasma, po, 200 mg, 200 mg qd oral after breakfast, Day 15
[7] = both sexes, human, plasma, po, 400 mg, 400 mg oral after breakfast, Day 1
[8] = both sexes, human, plasma, po, 400 mg, 400 mg qd oral after breakfast, Day 15

CC(C)=CCC[C@](C)(OC1O[C@H](CO)[C@@H](O)[C@H](O)[C@H]1O)[C@H]1CC[C@]2(C)[C@@H]1[C@H](O)C[C@@H]1[C@@]3(C)CC[C@H](O)C(C)(C)[C@@H]3CC[C@]12C (stereo partly drawn) [CK, 20-O-beta-D-glucopyranosyl-20(S)-protopanaxadiol]
AUC [1]: 24700 ± 6290 ng·h/mL | concentration at 15 day [1]: 1030 ± 262 ng/mL | MRT last (both sexes, human, plasma, 400 mg oral after breakfast, Day 1): 12.5 ± 1 h | AUC [2]: 41400 ± 10400 ng·h/mL | concentration at 15 day [2]: 1730 ± 432 ng/mL | half-life (both sexes, human, plasma, oral, 400 mg, Day 1, 100, 200 or 400 mg, read-out: mean t1/2 across the dose groups): 1400 to 1570 min | Tmax (both sexes, human, plasma, oral, 400 mg, Day 1, 100, 200 or 400 mg, read-out: median Tmax across the dose groups): 2.5 to 3 h | Tmax (both sexes, human, plasma, oral, Day 1, all subjects, read-out: Tmax, median (range)): 3 h | half-life (both sexes, human, plasma, oral, Day 1, all subjects, read-out: t1/2 (converted)): 1490 ± 348 min | Tmax (both sexes, human, plasma, oral, Day 15, all subjects, read-out: Tmax, median (range)): 3.5 h | half-life (both sexes, human, plasma, oral, Day 15, all subjects, read-out: t1/2 (converted)): 2120 ± 576 min | AUC(0-inf) [3]: 9070 ± 2060 ng·h/mL | AUC(0-t) [3]: 8880 ± 1990 ng·h/mL | MRT inf [3]: 14.6 ± 2.1 h | Cmax (both sexes, human, plasma, po, 100 mg, 100 mg oral after breakfast, Day 1, read-out: Cmax): 1120 ± 411 ng/mL | half-life (both sexes, human, plasma, po, 100 mg, 100 mg oral after breakfast, Day 1, read-out: t1/2 (converted)): 1510 ± 336 min | AUC(0-inf) [4]: 11100 ± 3230 ng·h/mL | AUC(0-t) [4]: 10400 ± 3010 ng·h/mL | MRT inf [4]: 17 ± 2.2 h | Cmax (both sexes, human, plasma, po, 100 mg, 100 mg qd oral after breakfast, Day 15, read-out: Cmax): 934 ± 323 ng/mL | Tmax (both sexes, human, plasma, po, 100 mg, 100 mg qd oral after breakfast, Day 15, read-out: Tmax, median (range)): 3.8 h | half-life (both sexes, human, plasma, po, 100 mg, 100 mg qd oral after breakfast, Day 15, read-out: t1/2 (converted)): 2080 ± 630 min | AUC(0-inf) [5]: 22700 ± 6350 ng·h/mL | AUC(0-t) [5]: 22300 ± 6320 ng·h/mL | MRT inf [5]: 14.9 ± 2 h | Cmax (both sexes, human, plasma, po, 200 mg, 200 mg oral after breakfast, Day 1, read-out: Cmax): 2880 ± 984 ng/mL | Tmax (both sexes, human, plasma, po, 200 mg, 200 mg oral after breakfast, Day 1, read-out: Tmax, median (range)): 3 h | half-life (both sexes, human, plasma, po, 200 mg, 200 mg oral after breakfast, Day 1, read-out: t1/2 (converted)): 1400 ± 474 min | AUC(0-inf) [6]: 34000 ± 9060 ng·h/mL | AUC(0-t) [6]: 31600 ± 8130 ng·h/mL | MRT inf [6]: 16.1 ± 1.6 h | Cmax (both sexes, human, plasma, po, 200 mg, 200 mg qd oral after breakfast, Day 15, read-out: Cmax): 3180 ± 877 ng/mL | Tmax (both sexes, human, plasma, po, 200 mg, 200 mg qd oral after breakfast, Day 15, read-out: Tmax, median (range)): 3.5 h | half-life (both sexes, human, plasma, po, 200 mg, 200 mg qd oral after breakfast, Day 15, read-out: t1/2 (converted)): 2240 ± 738 min | AUC(0-inf) [7]: 44900 ± 11200 ng·h/mL | AUC(0-t) [7]: 43900 ± 11100 ng·h/mL | MRT inf [7]: 15.2 ± 1.5 h | Cmax (both sexes, human, plasma, po, 400 mg, 400 mg oral after breakfast, Day 1, read-out: Cmax): 5060 ± 1650 ng/mL | Tmax (both sexes, human, plasma, po, 400 mg, 400 mg oral after breakfast, Day 1, read-out: Tmax, median (range)): 3 h | half-life (both sexes, human, plasma, po, 400 mg, 400 mg oral after breakfast, Day 1, read-out: t1/2 (converted)): 1570 ± 198 min | AUC(0-inf) [8]: 59200 ± 13300 ng·h/mL | AUC(0-t) [8]: 55200 ± 12800 ng·h/mL | MRT inf [8]: 17.9 ± 1.8 h | Cmax (both sexes, human, plasma, po, 400 mg, 400 mg qd oral after breakfast, Day 15, read-out: Cmax): 5170 ± 1500 ng/mL | half-life (both sexes, human, plasma, po, 400 mg, 400 mg qd oral after breakfast, Day 15, read-out: t1/2 (converted)): 2050 ± 318 min | Tmax (female, human, plasma, oral, Day 1, Female, read-out: Tmax, median (range)): 3 h | half-life (female, human, plasma, oral, Day 1, Female, read-out: t1/2 (converted)): 1580 ± 372 min | Tmax (female, human, plasma, oral, Day 15, Female, read-out: Tmax, median (range)): 3.5 h | half-life (female, human, plasma, oral, Day 15, Female, read-out: t1/2 (converted)): 2180 ± 63 min | Tmax (male, human, plasma, oral, Day 1, Male, read-out: Tmax, median (range)): 3 h | half-life (male, human, plasma, oral, Day 1, Male, read-out: t1/2 (converted)): 1400 ± 312 min | Tmax (male, human, plasma, oral, Day 15, Male, read-out: Tmax, median (range)): 3.5 h | half-life (male, human, plasma, oral, Day 15, Male, read-out: t1/2 (converted)): 2060 ± 588 min | steady state reached (once daily): after the 7th administration | Accumulation index (overall): ~2.66
